{"source": "patent US20260262643A1", "about": "“HERBICIDAL BENZOXAZINES” (FMC CORPORATION, priority 2022, published 2026)", "key": {"wheat [1]": {"system": "wheat", "experiment": "Test C preemergence", "type": "in vivo, Triticum aestivum", "details": "0 to 100 scale (0 no effect, 100 complete control)", "in_short": "(§1)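 Greenhouse herbicide screen, 10-day duration. Test chemicals in solvent/surfactant blend were sprayed onto soil at sowing (pre) or onto 2–10 cm seedlings at one to two leaves (post); injury scored visually against controls, 0 no effect to 100 complete control.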"}, "ryegrass, Italian [2]": {"system": "ryegrass, Italian", "experiment": "Test C postemergence", "type": "in vivo, Lolium multiflorum", "details": "10 days", "in_short": "as §1"}, "pigweed, palmer [3]": {"system": "pigweed, palmer", "experiment": "Test C postemergence", "type": "in vivo, Amaranthus palmeri", "details": "10 days", "in_short": "as §1"}, "ducksalad": {"system": "ducksalad", "experiment": "Test D flooded paddy test", "type": "in vivo, Heteranthera limosa", "details": "250 g ai/ha, applied to paddy water, visual rating after 13 to 14 days, scale 0 to 100 (0 no effect, 100 complete control)", "in_short": "(§2)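 Compounds go straight into paddy water over 2-leaf plants in pots flooded to 3 cm. Greenhouse holding lasts 13 to 14 days. Injury is scored by eye against controls from 0 (none) to 100 (complete control).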"}, "kochia [4]": {"system": "kochia", "experiment": "Test C postemergence", "type": "in vivo, Bassia scoparia", "details": "10 days", "in_short": "as §1"}, "ryegrass, Italian [5]": {"system": "ryegrass, Italian", "experiment": "Test C preemergence", "type": "in vivo, Lolium multiflorum", "details": "0 to 100 scale (0 no effect, 100 complete control)", "in_short": "as §1"}, "sedge, umbrella": {"system": "sedge, umbrella", "experiment": "Test D flooded paddy test", "type": "in vivo, Cyperus difformis", "details": "250 g ai/ha, applied to paddy water, visual rating after 13 to 14 days, scale 0 to 100 (0 no effect, 100 complete control)", "in_short": "as §2"}, "barnyardgrass [6]": {"system": "barnyardgrass", "experiment": "Test D flooded paddy test", "type": "in vivo, Echinochloa crus-galli", "details": "250 g ai/ha, applied to paddy water, visual rating after 13 to 14 days, scale 0 to 100 (0 no effect, 100 complete control)", "in_short": "as §2"}, "galium": {"system": "galium", "experiment": "Test C postemergence", "type": "in vivo, Galium aparine", "details": "10 days", "in_short": "as §1"}, "wheat [7]": {"system": "wheat", "experiment": "Test C postemergence", "type": "in vivo, Triticum aestivum", "details": "10 days", "in_short": "as §1"}, "ragweed [8]": {"system": "ragweed", "experiment": "Test C postemergence", "type": "in vivo, Ambrosia artemisiifolia", "details": "10 days", "in_short": "as §1"}, "barnyardgrass [9]": {"system": "barnyardgrass", "experiment": "Test C postemergence", "type": "in vivo, Echinochloa crusgalli", "details": "10 days", "in_short": "as §1"}, "soybean [10]": {"system": "soybean", "experiment": "Test C postemergence", "type": "in vivo, Glycine max", "details": "10 days", "in_short": "as §1"}, "pigweed, palmer [11]": {"system": "pigweed, palmer", "experiment": "Test C preemergence", "type": "in vivo, Amaranthus palmeri", "details": "0 to 100 scale (0 no effect, 100 complete control)", "in_short": "as §1"}, "soybean [12]": {"system": "soybean", "experiment": "Test C preemergence", "type": "in vivo, Glycine max", "details": "0 to 100 scale (0 no effect, 100 complete control)", "in_short": "as §1"}, "kochia [13]": {"system": "kochia", "experiment": "Test C preemergence", "type": "in vivo, Bassia scoparia", "details": "0 to 100 scale (0 no effect, 100 complete control)", "in_short": "as §1"}, "corn [14]": {"system": "corn", "experiment": "Test C postemergence", "type": "in vivo, Zea mays", "details": "10 days", "in_short": "as §1"}, "ragweed [15]": {"system": "ragweed", "experiment": "Test C preemergence", "type": "in vivo, Ambrosia artemisiifolia", "details": "0 to 100 scale (0 no effect, 100 complete control)", "in_short": "as §1"}, "green foxtail [16]": {"system": "green foxtail", "experiment": "Test C postemergence", "type": "in vivo, Setaria viridis", "details": "10 days", "in_short": "as §1"}, "oat, wild [17]": {"system": "oat, wild", "experiment": "Test C postemergence", "type": "in vivo, Avena fatua", "details": "10 days", "in_short": "as §1"}, "green foxtail [18]": {"system": "green foxtail", "experiment": "Test C preemergence", "type": "in vivo, Setaria viridis", "details": "0 to 100 scale (0 no effect, 100 complete control)", "in_short": "as §1"}, "oat, wild [19]": {"system": "oat, wild", "experiment": "Test C preemergence", "type": "in vivo, Avena fatua", "details": "0 to 100 scale (0 no effect, 100 complete control)", "in_short": "as §1"}, "barnyardgrass [20]": {"system": "barnyardgrass", "experiment": "Test C preemergence", "type": "in vivo, Echinochloa crusgalli", "details": "0 to 100 scale (0 no effect, 100 complete control)", "in_short": "as §1"}, "horseweed": {"system": "horseweed", "experiment": "Test C postemergence", "type": "in vivo, Erigeron canadensis", "details": "10 days", "in_short": "as §1"}, "rice": {"system": "rice", "experiment": "Test D flooded paddy test", "type": "in vivo, Oryza sativa", "details": "250 g ai/ha, applied to paddy water, visual rating after 13 to 14 days, scale 0 to 100 (0 no effect, 100 complete control)", "in_short": "as §2"}, "blackgrass [21]": {"system": "blackgrass", "experiment": "Test C postemergence", "type": "in vivo, Alopecurus myosuroides", "details": "10 days", "in_short": "as §1"}, "corn [22]": {"system": "corn", "experiment": "Test C preemergence", "type": "in vivo, Zea mays", "details": "0 to 100 scale (0 no effect, 100 complete control)", "in_short": "as §1"}, "blackgrass [23]": {"system": "blackgrass", "experiment": "Test C preemergence", "type": "in vivo, Alopecurus myosuroides", "details": "0 to 100 scale (0 no effect, 100 complete control)", "in_short": "as §1"}, "[24]": {"details": "Preemergence, 500 g ai/ha, visual rating after 10 days"}, "[25]": {"details": "Test C, preemergence, 125 g ai/ha"}, "[26]": {"details": "125 g ai/ha, postemergence, 0 to 100 scale, 0 no effect, 100 complete control"}, "[27]": {"details": "Postemergence, 500 g ai/ha, visual 0 to 100 scale (0 no effect, 100 complete control)"}}}
{"smiles": "CCc1ccc(-n2cnc(C(C)C)n2)cc1C(=O)N1C[C@H](C)Oc2c(C)cccc21", "note": "[Compound 240]", "values": [{"measurement": "Plant response rating, Wheat", "setting": "wheat [1]; [24]", "value": 90}, {"measurement": "Wheat plant response rating", "setting": "wheat [1]; [25]", "value": 60}, {"measurement": "Plant response rating, Ryegrass, Italian", "setting": "ryegrass, Italian [2]; [26]", "value": 70}, {"measurement": "Plant response rating, Ryegrass, Italian", "setting": "ryegrass, Italian [2]; [27]", "value": 90}, {"measurement": "Plant response rating, Pigweed, Palmer", "setting": "pigweed, palmer [3]; [26]", "value": 90}, {"measurement": "Plant response rating, Pigweed, Palmer", "setting": "pigweed, palmer [3]; [27]", "value": 100}, {"measurement": "Plant response rating, Ducksalad (Flood)", "setting": "ducksalad", "value": 80}, {"measurement": "Plant response rating, Kochia", "setting": "kochia [4]; [26]", "value": 30}, {"measurement": "Plant response rating, Kochia", "setting": "kochia [4]; [27]", "value": 90}, {"measurement": "Plant response rating, Ryegrass, Italian", "setting": "ryegrass, Italian [5]; [24]", "value": 100}, {"measurement": "Ryegrass, Italian plant response rating", "setting": "ryegrass, Italian [5]; [25]", "value": 100}, {"measurement": "Plant response rating, Sedge, Umbrella (Flood)", "setting": "sedge, umbrella", "value": 100}, {"measurement": "Plant response rating, Barnyardgrass (Flood)", "setting": "barnyardgrass [6]", "value": 35}, {"measurement": "Plant response rating, Galium", "setting": "galium; [26]", "value": 100}, {"measurement": "Plant response rating, Galium", "setting": "galium; [27]", "value": 100}, {"measurement": "Plant response rating, Wheat", "setting": "wheat [7]; [26]", "value": 20}, {"measurement": "Plant response rating, Wheat", "setting": "wheat [7]; [27]", "value": 50}, {"measurement": "Plant response rating, Ragweed", "setting": "ragweed [8]; [26]", "value": 50}, {"measurement": "Plant response rating, Ragweed", "setting": "ragweed [8]; [27]", "value": 80}, {"measurement": "Plant response rating, Barnyardgrass", "setting": "barnyardgrass [9]; [26]", "value": 40}, {"measurement": "Plant response rating, Barnyardgrass", "setting": "barnyardgrass [9]; [27]", "value": 80}, {"measurement": "Plant response rating, Soybean", "setting": "soybean [10]; [26]", "value": 100}, {"measurement": "Plant response rating, Soybean", "setting": "soybean [10]; [27]", "value": 100}, {"measurement": "Plant response rating, Pigweed, Palmer", "setting": "pigweed, palmer [11]; [24]", "value": 100}, {"measurement": "Pigweed, Palmer plant response rating", "setting": "pigweed, palmer [11]; [25]", "value": 100}, {"measurement": "Plant response rating, Soybean", "setting": "soybean [12]; [24]", "value": 100}, {"measurement": "Soybean plant response rating", "setting": "soybean [12]; [25]", "value": 100}, {"measurement": "Plant response rating, Kochia", "setting": "kochia [13]; [24]", "value": 100}, {"measurement": "Kochia plant response rating", "setting": "kochia [13]; [25]", "value": 70}, {"measurement": "Plant response rating, Corn", "setting": "corn [14]; [26]", "value": 60}, {"measurement": "Plant response rating, Corn", "setting": "corn [14]; [27]", "value": 80}, {"measurement": "Plant response rating, Ragweed", "setting": "ragweed [15]; [24]", "value": 20}, {"measurement": "Ragweed plant response rating", "setting": "ragweed [15]; [25]", "value": 10}, {"measurement": "Plant response rating, Foxtail, Green", "setting": "green foxtail [16]; [26]", "value": 80}, {"measurement": "Plant response rating, Foxtail, Green", "setting": "green foxtail [16]; [27]", "value": 90}, {"measurement": "Plant response rating, Oat, Wild", "setting": "oat, wild [17]; [26]", "value": 60}, {"measurement": "Plant response rating, Oat, Wild", "setting": "oat, wild [17]; [27]", "value": 70}, {"measurement": "Plant response rating, Foxtail, Green", "setting": "green foxtail [18]; [24]", "value": 100}, {"measurement": "Foxtail, Green plant response rating", "setting": "green foxtail [18]; [25]", "value": 100}, {"measurement": "Plant response rating, Oat, Wild", "setting": "oat, wild [19]; [24]", "value": 90}, {"measurement": "Oat, Wild plant response rating", "setting": "oat, wild [19]; [25]", "value": 90}, {"measurement": "Plant response rating, Barnyardgrass", "setting": "barnyardgrass [20]; [24]", "value": 100}, {"measurement": "Barnyardgrass plant response rating", "setting": "barnyardgrass [20]; [25]", "value": 90}, {"measurement": "Plant response rating, Horseweed", "setting": "horseweed; [26]", "value": 0}, {"measurement": "Plant response rating, Horseweed", "setting": "horseweed; [27]", "value": 70}, {"measurement": "Plant response rating, Rice (Flood)", "setting": "rice", "value": 10}, {"measurement": "Plant response rating, Blackgrass", "setting": "blackgrass [21]; [26]", "value": 80}, {"measurement": "Plant response rating, Blackgrass", "setting": "blackgrass [21]; [27]", "value": 90}, {"measurement": "Plant response rating, Corn", "setting": "corn [22]; [24]", "value": 60}, {"measurement": "Corn plant response rating", "setting": "corn [22]; [25]", "value": 70}, {"measurement": "Plant response rating, Blackgrass", "setting": "blackgrass [23]; [24]", "value": 90}, {"measurement": "Blackgrass plant response rating", "setting": "blackgrass [23]; [25]", "value": 60}]}
